# Laboratory results taken from ChEMBL document CHEMBL5608192, “Discovery and characterization of small-molecule TGR5 ligands with agonistic activity” (Eur J Med Chem, 2024).
# How the values were obtained:
# [1] = Effect on cAMP accumulation in non-TGR5 expressing HEK293-A cells transfected with EPAC-based FRET biosensor at 30 uM incubated for 10 mins in presence of IBMX and roflumilast by fluorescence based photometry relative to control; assay type: functional, Homo sapiens
# [2] = Effect on CRE-luciferase activity in TGR5 non-expressing HEK293-A cells transfected with EPAC-based FRET biosensor assessed as fold activation at 30 uM incubated for 18 hrs by spectrophotometric analysis relative to control; assay type: functional, Homo sapiens
# [3] = biological target: T1, G-protein coupled bile acid receptor 1 (Homo sapiens) (UniProt Q8TDU6); assay: (§1) Agonist activity at human TGR5 expressed in HEK293-A cells co-transfected with EPAC-based FRET biosensor incubated for 18 hrs by CRE-luciferase reporter gene assay; assay type: functional, cell-based; settings: filed as agonist
# T1 sequence (whole entry): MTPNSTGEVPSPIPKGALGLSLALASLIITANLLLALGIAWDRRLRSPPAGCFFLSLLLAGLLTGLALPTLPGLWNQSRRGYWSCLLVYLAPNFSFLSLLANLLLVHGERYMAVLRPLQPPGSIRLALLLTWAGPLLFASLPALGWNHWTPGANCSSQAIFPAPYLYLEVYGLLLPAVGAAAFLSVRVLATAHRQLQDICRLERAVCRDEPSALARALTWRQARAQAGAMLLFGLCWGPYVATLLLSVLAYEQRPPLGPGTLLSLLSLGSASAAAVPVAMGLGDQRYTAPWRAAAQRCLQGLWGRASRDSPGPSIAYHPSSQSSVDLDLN
# [4] = biological target: T2, G-protein coupled bile acid receptor 1 (Homo sapiens, UniProt Q8TDU6); assay: as §1; assay type: functional, cell-based
# T2 sequence (Q8TDU6 whole entry): T1 sequence (whole entry)
# [5] = biological target: T2, G-protein coupled bile acid receptor 1; assay: Agonist activity at human TGR5 expressed in HEK293-A cells co-transfected with EPAC-based FRET biosensor assessed as increase in cAMP accumulation incubated for 10 mins by spectrophotometry; assay type: functional, cell-based
Activity [3],EC50 [4] [µM],EC50 [5] [µM],SMILES,Activity [1] [%],fold change (FC) [2]
–,–,–,c1cc(CNC2CC2)cc(-c2cccc3cccnc23)c1,105.3,1.22
–,–,–,Cc1cc(S(=O)(=O)NCCn2ccnc2C2CC2)c(Cl)cc1Cl,103.9,0.96
Dose-Dependent Effect,–,–,CC(C)c1ccccc1OCCC(=O)NC[C@@H]1Cc2ccccc21,107.1,0.57
Dose-Dependent Effect,–,–,CO[C@@H](CNC(=O)CCc1cc2cc(Br)ccc2s1)Cc1ccccc1,106.4,0.75
–,–,–,Cc1ccc(CCCNC(=O)NCc2cn3c(C)cccc3n2)c(C)c1,–,0.87
Dose-Dependent Effect,19,30,CC1(C)c2ccccc2CCN1CC(=O)NC[C@@H]1Cc2ccccc2O1,103.7,0.82
–,–,–,c1ccc(-n2cccc2CNC2CCCN(C3Cc4ccccc4C3)C2)nc1 (stereo not drawn),104,1.44
